Measured values from patent US20230312524A1, “ALPHA1A-ADRENERGIC RECEPTOR AGONISTS AND METHODS OF USE” (CuraSen Therapeutics, Inc., priority 2020, published 2023).
pEC50: −log10 of the molar value. Read-outs that look alike come from different tables or passages of the source.

Molecular target: T1, α1A-ARS (Homo sapiens, UniProt P35348)
T1 sequence (P35348 1-466): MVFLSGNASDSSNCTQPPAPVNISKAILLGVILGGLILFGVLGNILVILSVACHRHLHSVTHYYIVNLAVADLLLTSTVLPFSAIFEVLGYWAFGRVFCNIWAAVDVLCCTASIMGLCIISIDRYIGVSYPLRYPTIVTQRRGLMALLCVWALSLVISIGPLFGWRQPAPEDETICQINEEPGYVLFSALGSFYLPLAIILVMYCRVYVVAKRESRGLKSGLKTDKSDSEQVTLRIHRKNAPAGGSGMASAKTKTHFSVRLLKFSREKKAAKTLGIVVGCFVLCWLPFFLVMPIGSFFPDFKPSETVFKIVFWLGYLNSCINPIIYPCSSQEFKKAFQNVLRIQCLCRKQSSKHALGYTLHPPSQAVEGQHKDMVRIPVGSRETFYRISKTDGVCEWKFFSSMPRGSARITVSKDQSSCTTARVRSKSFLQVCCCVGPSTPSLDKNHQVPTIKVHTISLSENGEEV
Assay: Calcium flux assay (Calcium 6 dye) in cells expressing an α1-AR
Type: cell-based
Details: for Emax: read-out: Average Emax
From the text: Calcium flux experimental design: alpha-1 adrenergic receptors (α1-ARs) couple to Gq proteins, which results in downstream activation of phospholipase C and release of calcium from intracellular stores. Intracellular calcium increase upon α1-AR activation can be detected by Calcium 6 dye.
Cell preparation: cells expressing an α1-AR were washed in warmed phosphate-buffered saline to remove medium and harvested using versene (Caisson Labs, catalog #EDL01).
Media was removed from cells by tapping plates upside-down on absorbent wipes, followed by 15 second upside-down 50×g centrifugation, again on absorbent wipes. 12 μL cell dye solution was added to cells using a reagent dispenser (Integra viaFILL) and cells were incubated for 90 minutes at 37° C., 5% CO2.
Compound preparation: candidate alpha-adrenergic compounds, dissolved to 10 mM in DMSO, were diluted in_assay buffer (HBSS/H-EPES containing 2 mM CaCl2 and 2 mM probenecid sodium salt). […] On all assay plates, vehicle (DMSO) and positive control (10 μM epinephrine) conditions were included on the plate, as well as a dose-response curve of epinephrine. […] 384 well compound plates were centrifuged briefly at 250×g, sealed (Axygen PCR-SP) and incubated at 37° C. until the 90 minute cell dye incubation was complete.
Calcium 6 stained cells and 384 well compound plates were loaded onto the Flexstation and incubated on the machine for 5 minutes before initiating the assay.
For each assay well, baseline Calcium 6 fluorescence was detected for 18 seconds prior to 12 μL compound addition at 12 μL per second. Changes in Calcium 6 fluorescence were detected for a further 22 seconds, for a total read time of 40 seconds. All detection was performed with medium gain sensitivity, bottom read, with 6 flashes per read.
Data analysis: for calcium flux, analysis of maximum change from baseline over the 40-second read time was determined using Softmax Pro and data was exported as raw text files. Potency estimates (EC50) were derived from dose response curves (maximum change from baseline versus the log concentration of test compound) fit by four-parameter nonlinear regression using Graphpad Prism. Efficacy was determined by comparing the magnitude of the test compound signal window (fitted curve max−min) with the signal window of the full agonist control, epinephrine. […] All experiments were repeated a minimum of three times, with the average (mean) potency and maximum effect relative to the within-plate full agonist dose-response comparator reported.

[1] = calcium flux, α1A-AR, maximum effect relative to full agonist epinephrine
[2] = calcium flux, α1A-AR, mean of at least three experiments, read-out: Average PEC50

Compound	Emax [1] [%]	pEC50 [2]	Emax [%]	pEC50
FC(F)(F)c1ccc(CC2=NCCN2)c(-c2ccccc2)c1 [Compound 75]	> 61	6.01 to 8.00	–	–
FCc1cc(Cl)ccc1CC1=NCCN1 [Compound 76]	–	6.01 to 8.00	21 to 60	–
FC(F)(F)c1ccc(CC2=NCCN2)c(C2CC2)c1 [Compound 77]	–	6.01 to 8.00	> 61	–
CCc1cc(C(F)(F)F)ccc1CC1=NCCN1 [Compound 78]	–	> 8.01	> 61	–
Fc1ccc(CC2=NCCN2)c(-c2ccccc2)c1 [Compound 79]	> 61	> 8.01	–	–
Fc1ccc(CC2=NCCN2)c(C(F)(F)F)c1 [Compound 80]	–	< 6.00	21 to 60	–
COc1ccc(CC2=NCCN2)c(C(F)(F)F)c1 [Compound 81]	–	6.01 to 8.00	> 61	–
FC(F)c1cc(Cl)ccc1CC1=NCCN1 [Compound 82]	–	6.01 to 8.00	21 to 60	–
N#Cc1ccc(CC2=NCCN2)c(C(F)(F)F)c1 [Compound 83]	–	< 6.00	21 to 60	–
CC(C)c1cc(Cl)ccc1CC1=NCCN1 [Compound 84]	–	6.01 to 8.00	21 to 60	–
FC(F)(F)Oc1cc(Cl)ccc1CC1=NCCN1 [Compound 85]	–	6.01 to 8.00	21 to 60	–
Cc1ccc(Cl)cc1CC1=NCCN1 [Compound 86]	–	6.01 to 8.00	21 to 60	–
Cc1cccc(Cl)c1CC1=NCCN1 [Compound 87]	–	–	21 to 60	6.01 to 8.00
CC(C)Cc1cc(Cl)ccc1CC1=NCCN1 [Compound 88]	–	6.01 to 8.00	> 61	–
Cc1c(Cl)cccc1CC1=NCCN1 [Compound 89]	–	< 6.00	21 to 60	–
FC(F)(F)Cc1cc(Cl)ccc1CC1=NCCN1 [Compound 90]	–	< 6.00	21 to 60	–
Clc1ccc(CC2=NCCN2)c(-n2cccc2)c1 [Compound 91]	> 61	6.01 to 8.00	–	–
FC(F)(F)c1coc2c(CC3=NCCN3)cccc12 [Compound 92]	–	< 6.00	21 to 60	–
FC(F)(F)c1ccc(CC2=NCCN2)c(-n2cccn2)c1 [Compound 93]	> 61	6.01 to 8.00	–	–
Cc1coc(-c2cc(Cl)ccc2CC2=NCCN2)n1 [Compound 94]	21 to 60	6.01 to 8.00	–	–
FC(F)(F)c1ccc(CC2=NCCN2)c(C2CCCCC2)c1 [Compound 96]	21 to 60	< 6.00	–	–
CN(CC(F)(F)F)c1cc(C(F)(F)F)ccc1CC1=NCCN1 [Compound 97]	< 20	< 6.00	–	–
Cc1cc2c(C)c(CC3=NCCN3)cc(Cl)c2o1 [Compound 98]	–	6.01 to 8.00	21 to 60	–

Compound	Emax [1] [%]	pEC50 [2]	Emax [%]	pEC50
CCc1c(Cl)cccc1CC1=NCCN1 [Compound 99]	–	< 6.00	21 to 60	–
Cc1c(CC2=NCCN2)cc(Cl)c2[nH]ccc12 [Compound 100]	–	> 8.01	> 61	–
Cc1c(CC2=NCCN2)cc(Cl)c2c1ccn2C [Compound 101]	–	> 8.01	> 61	–
CC(C)Oc1cc(Cl)ccc1CC1=NCCN1 [Compound 102]	–	6.01 to 8.00	21 to 60	–
Clc1ccc(CC2=NCCN2)c(-c2ccon2)c1 [Compound 104]	> 61	6.01 to 8.00	–	–
Cc1c(CC2=NCCN2)cc(Cl)c2c1cnn2C [Compound 105]	–	6.01 to 8.00	21 to 60	–
Cc1c(CC2=NCCN2)cc(Cl)c2nn(C)cc12 [Compound 106]	–	6.01 to 8.00	21 to 60	–
Cc1coc2c(Cl)cc(CC3=NCCN3)c(C)c12 [Compound 107]	–	> 8.01	21 to 60	–
Cc1c(CC2=NCCN2)cc(Cl)c2[nH]ncc12 [Compound 108]	–	6.01 to 8.00	> 61	–
Clc1cccc(CC2=NCCN2)c1-n1cccc1 [Compound 109]	> 61	6.01 to 8.00	–	–
CCc1cc(S(=O)(=O)CF)ccc1CC1=NCCN1 [Compound 110]	> 61	6.01 to 8.00	–	–
CCc1cc(S(=O)(=O)C(F)(F)F)ccc1CC1=NCCN1 [Compound 111]	> 61	6.01 to 8.00	–	–
CCc1cc(S(=O)(=O)C(F)F)ccc1CC1=NCCN1 [Compound 112]	> 61	6.01 to 8.00	–	–
CCc1cc(S(C)(=O)=O)ccc1CC1=NCCN1 [Compound 113]	> 61	6.01 to 8.00	–	–
FC(F)Oc1cc(Cl)ccc1CC1=NCCN1 [Compound 114]	–	6.01 to 8.00	21 to 60	–
Cc1cccn1-c1c(Cl)cccc1CC1=NCCN1 [Compound 115]	21 to 60	< 6.00	–	–
Cc1cccn1-c1cc(Cl)ccc1CC1=NCCN1 [Compound 116]	> 61	6.01 to 8.00	–	–
CC(C)C(F)(F)c1cc(Cl)ccc1CC1=NCCN1 [Compound 117]	–	6.01 to 8.00	21 to 60	–
Clc1ccc(CC2=NCCN2)c(C2CCOCC2)c1 [Compound 118]	< 20	< 6.00	–	–
Clc1ccc(CC2=NCCN2)c(CC2CCOCC2)c1 [Compound 119]	< 20	< 6.00	–	–
Clc1ccc(CC2=NCCN2)c(Cc2ccccc2)c1 [Compound 120]	< 20	< 6.00	–	–
CCC(F)(F)c1cc(Cl)ccc1CC1=NCCN1 [Compound 121]	–	6.01 to 8.00	21 to 60	–
Clc1ccc(CC2=NCCN2)c(N2CCCC2)c1 [Compound 122]	> 61	6.01 to 8.00	–	–

Compound	Emax [1] [%]	pEC50 [2]	Emax [%]	pEC50
Cc1cc(Cl)cc(C)c1CC1=NCCN1 [Compound 123]	–	6.01 to 8.00	> 61	–
COCc1cc(Cl)ccc1CC1=NCCN1 [Compound 124]	21 to 60	6.01 to 8.00	–	–
Cc1cc(Cl)cc(Cl)c1CC1=NCCN1 [Compound 125]	–	6.01 to 8.00	> 61	–
Cc1c(CC2=NCCN2)cccc1C(F)(F)F [Compound 126]	–	6.01 to 8.00	21 to 60	–
Cc1ccc(C(F)(F)F)cc1CC1=NCCN1 [Compound 127]	–	6.01 to 8.00	> 61	–
Cc1cc(OC(F)(F)F)ccc1CC1=NCCN1 [Compound 128]	–	6.01 to 8.00	21 to 60	–
Cc1cc(OC(F)F)ccc1CC1=NCCN1 [Compound 129]	–	6.01 to 8.00	21 to 60	–
Cc1cc(CC2=NCCN2)cc(C(F)(F)F)c1 [Compound 130]	–	6.01 to 8.00	> 61	–
FC(F)(F)c1cccc(CC2=NCCN2)c1Cl [Compound 131]	–	6.01 to 8.00	21 to 60	–
FC(F)(F)c1ccc(Cl)c(CC2=NCCN2)c1 [Compound 132]	–	6.01 to 8.00	> 61	–
FC(F)(F)c1ccc(CC2=NCCN2)c(Cl)c1 [Compound 133]	–	6.01 to 8.00	21 to 60	–
FC(F)(F)c1cccc(Cl)c1CC1=NCCN1 [Compound 134]	–	6.01 to 8.00	> 61	–
FC(F)(F)Oc1ccc(CC2=NCCN2)c(Cl)c1 [Compound 135]	–	6.01 to 8.00	21 to 60	–
FC(F)Oc1ccc(CC2=NCCN2)c(Cl)c1 [Compound 136]	–	6.01 to 8.00	21 to 60	–
CCC(F)(F)c1c(Cl)cccc1CC1=NCCN1 [Compound 137]	–	6.01 to 8.00	21 to 60	–
FC(F)c1ccc(CC2=NCCN2)c(Cl)c1 [Compound 138]	–	6.01 to 8.00	> 61	–
Cc1c(CC2=NCCN2)ccc(S(C)(=O)=O)c1Cl [Compound 139]	21 to 60	< 6.00	–	–
Cc1c(CC2=NCCN2)ccc(S(=O)(=O)CF)c1Cl [Compound 140]	> 61	< 6.00	–	–
CCc1c(CC2=NCCN2)ccc(S(=O)(=O)CF)c1Cl [Compound 141]	> 61	< 6.00	–	–
C[C@@H](F)c1cc(Cl)ccc1CC1=NCCN1 [Compound 142]	–	6.01 to 8.00	21 to 60	–
CCc1c(CC2=NCCN2)ccc(S(C)(=O)=O)c1Cl [Compound 144]	21 to 60	< 6.00	–	–
C[C@H](O)c1cc(Cl)ccc1CC1=NCCN1 [Compound 145]	< 20	< 6.00	–	–
